This note sets out measurements from patent publication US20090286803A1, “COMBINATION COMPRISING A) A PYRIMIDYLAMINOBENZAMIDE COMPOUND, AND B) A THR315LLE KINASE INHIBITOR” (priority 2006, published 2009).

One assay concerns Thr315lle Bcr-Abl. The conditions noted are these: only mutant of the 33 not inhibited.
In another assay the test system is mutant forms of Bcr-Abl. The settings on record: 33 mutant forms evaluated.

Consider `Cc1cn(-c2cc(NC(=O)c3ccc(C)c(Nc4nccc(-c5cccnc5)n4)c3)cc(C(F)(F)F)c2)cn1` [AMN107, 4-Methyl-3-[[4-(3-pyridinyl)-2-pyrimidinyl]amino]-N-[5-(4-methyl-1H-imidazol-1-yl)-3-(trifluoromethyl)phenyl] benzamide], for which, in the assay with Thr315lle Bcr-Abl, the “sensitivity of the Thr315lle mutant” value was “resistant”. Further, in the assay with mutant forms of Bcr-Abl, the “mutant forms of Bcr-Abl inhibited, out of those currently evaluated” value is listed as 32 of 33.
